Values quoted from earlier work in PubChem BioAssay AID1259409 (Chemical Carcinogenesis Research Information System (CCRIS), 2018).

System: rodent chemically induced tumor inhibition, incidence and multiplicity
Assay: CCRIS tumor inhibitor studies
Conditions: Promoter: NONE USED

## C=C(C)[C@H]1CC=C(C)CC1
Carcinogen: 4-(METHYLNITROSAMINO)-1-(3-PYRIDYL)-1-BUTANONE, 64019-91-4, Dose [Inhibitor]: 0, 25 MG LIMONENE OIL 0.2 ML COTTONSEED OIL 1 HR PRIOR TO EACH CARCINOGEN DOSE (STUDY DURATION: 28 WK), Route [Inhibitor]: INTRAGASTRIC, Species: MOUSE, Strain/Sex: STRAIN-A/FEMALE, Target Tissue: Type of Lesion: FORESTOMACH: PAPILLOMA, Dose [Carcinogen]: 0.5 MG IN O.1 ML TRICAPRYLIN 2/WK FOR 8 WK
  tumour outcome (control, treated, inhibition, significance): 17%, 0%, 100%,
Carcinogen: 4-(METHYLNITROSAMINO)-1-(3-PYRIDYL)-1-BUTANONE, 64091-91-4, Dose [Inhibitor]: 0, 0.63% IN DIET FOR 17 WK BEGINNING 1 WK PRIOR TO CARCINOGEN DOSE (STUDY DURATION: 17 WK), Route [Inhibitor]: ORAL, Species: MOUSE, Strain/Sex: STRAIN-A/FEMALE, Target Tissue: Type of Lesion: LUNG: ADENOMA, Dose [Carcinogen]: 10 UMOL IN 0.1 ML SALINE ONCE
  tumour outcome (control, treated, inhibition, significance): 100%, 96%, 4%, not significant
Carcinogen: 4-(METHYLNITROSAMINO)-1-(3-PYRIDYL)-1-BUTANONE, 64091-91-4, Dose [Inhibitor]: 0, 25 MG IN 0.2 ML COTTONSEED OIL 1 HR PRIOR TO EACH CARCINOGEN DOSE (STUDY DURATION: 28 WK), Route [Inhibitor]: INTRAGASTRIC, Species: MOUSE, Strain/Sex: STRAIN-A/FEMALE, Target Tissue: Type of Lesion: FORESTOMACH: PAPILLOMA, Dose [Carcinogen]: 0.5 MG IN 0.1 ML TRICAPRYLIN 2/WK FOR 8 WK
  tumour outcome (control, treated, inhibition, significance): 90%, 0%, 100%, p<0.001
Carcinogen: 4-(METHYLNITROSAMINO)-1-(3-PYRIDYL)-1-BUTANONE, 64091-91-4, Dose [Inhibitor]: O, 25 MG LIMONENE FROM LEMON OIL IN 0.2 ML COTTONSEED OIL 1 HR PRIOR TO EACH CARCINOGEN DOSE (STUDY DURATION: 28 WK), Route [Inhibitor]: INTRAGASTRIC, Species: MOUSE, Strain/Sex: STRAIN-A/FEMALE, Target Tissue: Type of Lesion: FORESTOMACH: PAPILLOMA, Dose [Carcinogen]: 0.5 MG IN OIL ML TRICAPRYLIN 2/WK FOR 8 WK
  tumour outcome (control, treated, inhibition, significance): 17%, 0%, 100%, not calculated
Carcinogen: 7,12-DIMETHYLBENZ[A]ANTHRACENE, 57-97-6, Dose [Inhibitor]: 0, 1% IN DIET FOR 3 WK BEGINNING 2 WK PRIOR TO CARCINOGEN DOSE (STUDY DURATION: 20 WK), Route [Inhibitor]: ORAL, Species: RAT, Strain/Sex: WISTAR/FEMALE, Target Tissue: Type of Lesion: MAMMARY GLAND: CARCINOMA, Dose [Carcinogen]: 50 MG/KG IN SESAME OIL ONCE
  tumour outcome (control, treated, inhibition, significance): 98%, 96%, 2%, not significant
Carcinogen: 7,12-DIMETHYLBENZ[A]ANTHRACENE, 57-97-6, Dose [Inhibitor]: 0, 5% IN DIET BEGINNING POST CARCINOGEN TREATMENT AND CONTINUING FOR 25 WK (STUDY DURATION: 25 WK), Route [Inhibitor]: ORAL, Species: RAT, Strain/Sex: SPRAGUE-DAWLEY/FEMALE, Target Tissue: Type of Lesion: MAMMARY GLAND: TUMOR, Dose [Carcinogen]: 65 MG/KG IN SESAME OIL ONCE
  tumour outcome (control, treated, inhibition, significance): 100%, 97%, 3%, not significant
Carcinogen: 7,12-DIMETHYLBENZ[A]ANTHRACENE, 57-97-6, Dose [Inhibitor]: 0, 5% IN DIET FOR 1 WK PRIOR TO AND 1 WK POST CARCINOGEN TREATMENT (STUDY DURATION: 25 WK), Route [Inhibitor]: ORAL, Species: RAT, Strain/Sex: SPRAGUE-DAWLEY/FEMALE, Target Tissue: Type of Lesion: MAMMARY GLAND: TUMOR, Dose [Carcinogen]: 65 MG/KG IN SESAME OIL ONCE
  tumour outcome (control, treated, inhibition, significance): 100%, 88%, 12%, not significant
Carcinogen: 7,12-DIMETHYLBENZ[A]ANTHRACENE, 57-97-6, Dose [Inhibitor]: 0, 36 MMOL/KG IN DIET FOR 24 WK BEGINNING 2 WK PRIOR TO CARCINOGEN DOSE (STUDY DURATION: 24 WK), Route [Inhibitor]: ORAL, Species: RAT, Strain/Sex: SPRAGUE-DAWLEY/FEMALE, Target Tissue: Type of Lesion: MAMMARY GLAND: TUMOR, Dose [Carcinogen]: 65 MG/KG BW ONCE
  tumour outcome (control, treated, inhibition, significance): 91%, 75%, 18%, not significant
Carcinogen: BENZO[A]PYRENE, 50-32-8, Dose [Inhibitor]: 10 MG IN 0.1 ML ACETONE 3/WK ADMINISTERED SIMULTANEOUSLY WITH CARCINOGEN FOR DURATION OF STUDY (STUDY DURATION: 440 D), Route [Inhibitor]: DERMAL, Species: MOUSE, Strain/Sex: ICR/FEMALE, Target Tissue: Type of Lesion: SKIN: PAPILLOMA, Dose [Carcinogen]: 5 UG IN 0.1 ML ACETONE 3/WK FOR DURATION OF STUDY
  tumour outcome (control, treated, inhibition, significance): 16/50 (32%), 13/50 (26%), 19%, not calculated
Carcinogen: BENZO[A]PYRENE, 50-32-8, Dose [Inhibitor]: 10 MG IN 0.1 ML ACETONE 3/WK ADMINISTERED SIMULTANEOUSLY WITH CARCINOGEN FOR DURATION OF STUDY (STUDY DURATION: 440 D), Route [Inhibitor]: DERMAL, Species: MOUSE, Strain/Sex: ICR/FEMALE, Target Tissue: Type of Lesion: SKIN: SQUAMOUS CARCINOMA, Dose [Carcinogen]: 5 UG IN 0.1 ML ACETONE 3/WK FOR DURATION OF STUDY
  tumour outcome (control, treated, inhibition, significance): 12/50 (24%), 4/50 (8%), 67%, not calculated
Carcinogen: DIETHYLNITROSAMINE, 55-18-5, N-METHYL-N-NITROSOUREA, 684-93-5, N-BUTYL-N-(4-HYDROXYBUTYL)NITROSAMINE, 3817-11-6, 1, Carcinogen: DIETHYLNITROSAMINE, 55-18-5, N-METHYL-N-NITROSOUREA, 684-93-5, N-BUTYL-N-(4-HYDROXYBUTYL)NITROSAMINE, 3817-11-6, 1, Dose [Inhibitor]: 0, 0.5% IN DIET FOR 24 WK BEGINNING POST CARCINOGEN TREATMENT (STUDY DURATION: 28 WK), Route [Inhibitor]: ORAL, Species: RAT, Strain/Sex: F344/MALE, Target Tissue: Type of Lesion: KIDNEY: ADENOMA, Dose [Carcinogen]: 100 MG/KG DEN IP ONCE, 20 MG/KG MNU IP 2/WK FOR FIRST 2 WK, 0.05% BBN IN DRINKING WATER DURING FIRST 2 WK, 40 MG/KG D, Dose [Carcinogen]: 100 MG/KG DEN IP ONCE, 20 MG/KG MNU IP 2/WK FOR FIRST 2 WK, 0.05% BBN IN DRINKING WATER DURING FIRST 2 WK, 40 MG/KG D
  tumour outcome (control, treated, inhibition, significance): 4/19 (21%), 6/20 (30%), -43%, not significant
Carcinogen: DIETHYLNITROSAMINE, 55-18-5, N-METHYL-N-NITROSOUREA, 684-93-5, N-BUTYL-N-(4-HYDROXYBUTYL)NITROSAMINE, 3817-11-6, 1, Carcinogen: DIETHYLNITROSAMINE, 55-18-5, N-METHYL-N-NITROSOUREA, 684-93-5, N-BUTYL-N-(4-HYDROXYBUTYL)NITROSAMINE, 3817-11-6, 1, Dose [Inhibitor]: 0, 1% IN DIET FOR 24 WK BEGINNING POST CARCINOGEN TREATMENT (STUDY DURATION: 28 WK), Route [Inhibitor]: ORAL, Species: RAT, Strain/Sex: F344/MALE, Target Tissue: Type of Lesion: KIDNEY: ADENOMA, Dose [Carcinogen]: 100 MG/KG DEN IP ONCE, 20 MG/KG MNU IP 2/WK FOR FIRST 2 WK, 0.05% BBN IN DRINKING WATER DURING FIRST 2 WK, 40 MG/KG D, Dose [Carcinogen]: 100 MG/KG DEN IP ONCE, 20 MG/KG MNU IP 2/WK FOR FIRST 2 WK, 0.05% BBN IN DRINKING WATER DURING FIRST 2 WK, 40 MG/KG D
  tumour outcome (control, treated, inhibition, significance): 4/19 (21%), 5/19 (26%), -24%, not significant
Carcinogen: DIETHYLNITROSAMINE, 55-18-5, N-METHYL-N-NITROSOUREA, 684-93-5, N-BUTYL-N-(4-HYDROXYBUTYL)NITROSAMINE, 3817-11-6, 1, Carcinogen: DIETHYLNITROSAMINE, 55-18-5, N-METHYL-N-NITROSOUREA, 684-93-5, N-BUTYL-N-(4-HYDROXYBUTYL)NITROSAMINE, 3817-11-6, 1, Dose [Inhibitor]: 0, 2% IN DIET FOR 24 WK BEGINNING POST CARCINOGEN TREATMENT (STUDY DURATION: 28 WK), Route [Inhibitor]: ORAL, Species: RAT, Strain/Sex: F344/MALE, Target Tissue: Type of Lesion: KIDNEY: ADENOMA, Dose [Carcinogen]: 100 MG/KG DEN IP ONCE, 20 MG/KG MNU IP 2/WK FOR FIRST 2 WK, 0.05% BBN IN DRINKING WATER DURING FIRST 2 WK, 40 MG/KG D, Dose [Carcinogen]: 100 MG/KG DEN IP ONCE, 20 MG/KG MNU IP 2/WK FOR FIRST 2 WK, 0.05% BBN IN DRINKING WATER DURING FIRST 2 WK, 40 MG/KG D
  tumour outcome (control, treated, inhibition, significance): 4/19 (21%), 13/19 (68%), -224%, p<0.01
Carcinogen: METHYLCHOLANTHRENE, 56-49-5, Dose [Inhibitor]: 0, 0.5 ML 1/WK FOR 1 YR BEGINNING POST CARCINOGEN TREATMENT (STUDY DURATION: 24 MO), Route [Inhibitor]: GAVAGE, Species: MOUSE, Strain/Sex: SWISS/FEMALE, Target Tissue: Type of Lesion: LUNG: PAPILLARY ADENOMA AND ADENOCARCINOMA, Dose [Carcinogen]: 0.01 MG ON D 1, 7, 14 AND 21 AFTER BIRTH
  tumour outcome (control, treated, inhibition, significance): 7/11 (64%), 8/12 (67%), -5%, not calculated
Carcinogen: METHYLCHOLANTHRENE, 56-49-5, Dose [Inhibitor]: 0, 0.5 ML 1/WK FOR 1 YR BEGINNING POST CARCINOGEN TREATMENT (STUDY DURATION: 24 MO), Route [Inhibitor]: GAVAGE, Species: MOUSE, Strain/Sex: SWISS/MALE, Target Tissue: Type of Lesion: LIVER: HEPATOCELLULAR ADENOMA AND CARCINOMA, Dose [Carcinogen]: 0.01 MG ON D 1, 7, 14 AND 21 AFTER BIRTH
  tumour outcome (control, treated, inhibition, significance): 3/13 (23%), 2/14 (14%), 39%, not calculated
Carcinogen: METHYLCHOLANTHRENE, 56-49-5, Dose [Inhibitor]: 0, 0.5 ML 1/WK FOR 1 YR BEGINNING POST CARCINOGEN TREATMENT (STUDY DURATION: 24 MO), Route [Inhibitor]: GAVAGE, Species: MOUSE, Strain/Sex: SWISS/MALE, Target Tissue: Type of Lesion: LUNG: PAPILLARY ADENOMA AND ADENOCARCINOMA, Dose [Carcinogen]: 0.01 MG ON D 1, 7, 14 AND 21 AFTER BIRTH
  tumour outcome (control, treated, inhibition, significance): 10/13 (77%), 7/14 (50%), 35%, not calculated
